Assay results as given in ChEMBL document CHEMBL1126815, “Synthesis and squalene synthetase inhibitory activity of tripotassium 1-methyl-1-[(N-benzyl-N-farnesyl)aminoethylphosphinato]ethylphosphonate as a tethered analog of N-benzyl-N-farnesylamine-inorganic pyrophosphate ion pair” (Bioorg Med Chem Lett, 1993).

Biological target: T1, Squalene synthase (Rattus norvegicus, UniProt Q02769)
T1 sequence (Q02769 whole entry): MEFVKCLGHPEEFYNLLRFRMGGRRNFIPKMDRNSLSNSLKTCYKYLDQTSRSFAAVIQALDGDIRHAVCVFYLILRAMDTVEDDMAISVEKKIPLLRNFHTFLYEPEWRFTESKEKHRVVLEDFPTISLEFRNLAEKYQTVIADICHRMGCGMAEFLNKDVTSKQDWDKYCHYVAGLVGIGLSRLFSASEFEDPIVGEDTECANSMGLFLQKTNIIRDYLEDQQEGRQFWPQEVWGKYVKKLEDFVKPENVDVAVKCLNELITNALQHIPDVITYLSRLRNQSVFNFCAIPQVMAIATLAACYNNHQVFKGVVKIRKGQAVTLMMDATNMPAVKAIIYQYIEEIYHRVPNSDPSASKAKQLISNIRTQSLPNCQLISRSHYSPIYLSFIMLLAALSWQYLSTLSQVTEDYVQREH
Assay: Tested for the squalene synthetase inhibitory activity in rat liver microsomal assay
Assay type: microsomes

| SMILES | IC50 [nM] |
| --- | --- |
| CC(C)=CCC/C(C)=C/CC/C(C)=C/CNCc1ccccc1.O=P(O)(O)OP(=O)(O)O | 10 |
| CC(C)=CCC/C(C)=C/CC/C(C)=C/CN(CCP(=O)(O)C(C)(C)P(=O)(O)O)Cc1ccccc1 | 20 |
